Inconclusive results and toxic doses are left out. Rule as the data show it: active = T/C of 150% or more; inactive = T/C below 125%.
System: L1210 leukemia ip in BDF1 mice, survival T/C
Test: NCI In Vivo Anticancer Drug Screen. Data for tumor model L1210 Leukemia (intraperitoneal) in B6D2F1 (BDF1) mice
Conditions: endpoint: mean survival time, higher = longer survival
Procedure, shortened: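 Mice bearing the transplanted tumor received compound or vehicle. Survival of the treated group was divided by that of the vehicle-treated control group to give the ratio.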

[1] = dose: 100.0 mg/kg/injection, schedule: Q01DX009 (ip), vehicle: Klucel (hydroxypropylcellulose) (HPC)
[2] = dose: 100.0 mg/kg/injection, schedule: Q04DX003 (ip), vehicle: Klucel (hydroxypropylcellulose) (HPC)
[3] = dose: 200.0 mg/kg/injection, schedule: Q01DX009 (ip), vehicle: Klucel (hydroxypropylcellulose) (HPC)
[4] = dose: 200.0 mg/kg/injection, schedule: Q04DX003 (ip), vehicle: Klucel (hydroxypropylcellulose) (HPC)
[5] = dose: 400.0 mg/kg/injection, schedule: Q01DX009 (ip), vehicle: Klucel (hydroxypropylcellulose) (HPC)
[6] = dose: 100.0 mg/kg/injection, schedule: Q01DX009 (ip), vehicle: saline with Tween-80
[7] = dose: 200.0 mg/kg/injection, schedule: Q01DX009 (ip), vehicle: saline with Tween-80
[8] = dose: 400.0 mg/kg/injection, schedule: Q01DX009 (ip), vehicle: saline with Tween-80

Measured: T/C

Cc1noc(N)c1N
inactive: dose: 100.0 mg/kg/injection, schedule: Q01DX009 (ip), vehicle: water 105 % of control | dose: 100.0 mg/kg/injection, schedule: Q04DX003 (ip), vehicle: water 93 % of control | dose: 200.0 mg/kg/injection, schedule: Q01DX009 (ip), vehicle: water 115 % of control | dose: 200.0 mg/kg/injection, schedule: Q04DX003 (ip), vehicle: water 96 % of control | dose: 400.0 mg/kg/injection, schedule: Q01DX009 (ip), vehicle: water 121 % of control | dose: 400.0 mg/kg/injection, schedule: Q04DX003 (ip), vehicle: water 102 % of control

S=c1[nH]c2ccccc2n1CCc1ccncc1
inactive: dose: 100.0 mg/kg/injection, schedule: Q01DX001 (ip), vehicle: saline 100 % of control | dose: 200.0 mg/kg/injection, schedule: Q01DX001 (ip), vehicle: saline 97 % of control | dose: 400.0 mg/kg/injection, schedule: Q01DX001 (ip), vehicle: saline 95 % of control

Cc1cc(Br)c(I)c([N+](=O)[O-])c1
inactive: dose: 37.5 mg/kg/injection, schedule: Q04DX003 (ip), vehicle: saline with Tween-80 104 % of control | dose: 75.0 mg/kg/injection, schedule: Q04DX003 (ip), vehicle: saline with Tween-80 95 % of control | dose: 150.0 mg/kg/injection, schedule: Q04DX003 (ip), vehicle: saline with Tween-80 102 % of control

CCOC(=O)c1ccc(S(=O)(=O)NCCCc2c(C)nc(N)[nH]c2=O)cc1
inactive: dose: 12.5 mg/kg/injection, schedule: Q01DX001 (ip), vehicle: saline with Tween-80 90 % of control | dose: 25.0 mg/kg/injection, schedule: Q01DX001 (ip), vehicle: saline with Tween-80 103 % of control | dose: 50.0 mg/kg/injection, schedule: Q01DX001 (ip), vehicle: saline with Tween-80 90 % of control

S=C(Cc1ccccc1)N1CCCCC1
inactive: [1] 108 % of control | [2] 100 % of control | [3] 98 % of control | [4] 101 % of control | [5] 95 % of control

CC(COC(=O)c1ccccc1)(COC(=O)c1ccccc1)COC(=O)c1ccccc1
inactive: [1] 96 % of control | [2] 113 % of control | [3] 104 % of control | [4] 99 % of control | [5] 107 % of control | dose: 400.0 mg/kg/injection, schedule: Q04DX003 (ip), vehicle: Klucel (hydroxypropylcellulose) (HPC) 96 % of control

COC(=O)C1=CC2c3ccccc3C1c1ccccc12
inactive: [6] 89 % of control | [7] 105 % of control | [8] 98 % of control

Nc1ccc2c(c1)Cc1c-2cc(I)c(O)c1I
inactive: dose: 100.0 mg/kg/injection, schedule: Q01DX001 (ip), vehicle: carboxymethylcellulose (CMC) 98 % of control | dose: 200.0 mg/kg/injection, schedule: Q01DX001 (ip), vehicle: carboxymethylcellulose (CMC) 101 % of control | dose: 400.0 mg/kg/injection, schedule: Q01DX001 (ip), vehicle: carboxymethylcellulose (CMC) 101 % of control

COc1ccc(Cl)cc1NC(=O)Oc1ccc(-c2ccccc2)cc1Cl
inactive: [6] 99 % of control | [7] 92 % of control | [8] 91 % of control

COc1ccc(-c2coc3cc(O)ccc3c2=O)cc1
inactive: dose: 100.0 mg/kg/injection, schedule: Q04DX003 (ip), vehicle: saline with Tween-80 96 % of control | dose: 200.0 mg/kg/injection, schedule: Q04DX003 (ip), vehicle: saline with Tween-80 96 % of control | dose: 400.0 mg/kg/injection, schedule: Q04DX003 (ip), vehicle: saline with Tween-80 96 % of control
